{"source": "patent US20220168298A1", "about": "“CANCER TREATMENT” (Janssen Pharmaceutica NV, priority 2019, published 2022)", "key": {"[1]": {"details": "Regimen 2 6 mg continuous (n = 78)"}}, "note": "Like-named read-outs stand apart in the source and are kept apart here.", "method": "Study treatment is administered on 28-day cycles. Prior to interim analysis 1, there were 2 treatment regimens.\nSafety was assessed continuously by the investigator and based on medical review of AE reports and the results of vital sign measurements, physical examinations, clinical laboratory tests, ECOG performance status, and other safety evaluations.\nSafety data are presented for the safety population (N=207, enrolled between May 7, 2015, and Dec. 5, 2017), defined as patients who received at least 1 dose of study treatment.\nAn analysis was done on 99 NCT02365597 patients who received the dose regimen of 8 mg/day continuous (pharmacodynamically guided uptitrated to 9 mg/d per serum phosphate as described herein, Regimen 3) to explore efficacy among high-risk patients. […] High-risk patients are defined as patients meeting one or more of the following criteria: • age ≥75 years; • ECOG PS 2 (Eastern Cooperative Oncology Group Performance Status 2; Oken M, Creech R, Tormey D, et al. Toxicity and response criteria of the Eastern Cooperative Oncology Group. Am J Clin Oncol. 1982; 5:649-655) • hemoglobin <10 g/dL; • visceral metastases of the liver, lung and/or bone; • 2 or 3 Bellmunt risk factors (Bellmunt J, Choueiri T K, Fougeray R, et al: Prognostic factors in patients with advanced transitional cell carcinoma of the urothelial tract experiencing treatment failure with platinum-containing regimens.\nFinal analysis for NCT02365597 was conducted, per protocol 12 months after the last subject was enrolled.", "data": [{"compound": "COc1cc(OC)cc(N(CCNC(C)C)c2ccc3ncc(-c4cnn(C)c4)nc3c2)c1", "note": "[erdafitinib, N-(3,5-dimethoxyphenyl)-N′-(1-methylethyl)-N-[3-(1-methyl-1H-pyrazol-4-yl)quinoxalin-6-yl]ethane-1,2-diamine]", "values": [{"measurement": "TRAE Nail dystrophy, Grade ≥3", "setting": "[1]", "value": 0, "unit": "n"}, {"measurement": "TRAE Palmar-plantar erythrodysaesthesia syndrome, Grade ≥3", "setting": "[1]", "value": 0, "unit": "n"}, {"measurement": "TRAE Paronychia, Grade ≥3", "setting": "[1]", "value": 0, "unit": "n"}, {"measurement": "treatment-related deaths", "setting": "across all dose regimens (N = 207)", "value": "no treatment-related deaths"}, {"measurement": "treatment-related deaths", "setting": "final analysis, 101 patients", "value": "no treatment-related deaths"}, {"measurement": "CSR events resolved on the data cut-off date", "setting": "human, in vivo", "value": 63, "unit": "%"}, {"measurement": "CSR events resolved on the data cut-off date, n/N", "setting": "human, in vivo", "value": "17/27"}, {"measurement": "CSR events that were Grade 1 or 2", "setting": "human, in vivo", "value": 85, "unit": "%"}, {"measurement": "CSR events that were Grade 1 or 2, n/N", "setting": "human, in vivo", "value": "23/27"}, {"measurement": "Treatment discontinuation rates for adverse events", "setting": "human, in vivo", "value": "approximately 20%"}, {"measurement": "dosage discontinued for CSR", "setting": "human, in vivo", "value": 3, "unit": "patients"}, {"measurement": "dosage interrupted for CSR", "setting": "human, in vivo", "value": 8, "unit": "patients"}, {"measurement": "dosage reduced for CSR", "setting": "human, in vivo", "value": 13, "unit": "patients"}, {"measurement": "grade 3/4 serious adverse events proportions by subgroup, range", "setting": "human, in vivo", "value": "26.7-36.4%"}, {"measurement": "ongoing CSR events that were Grade 1", "setting": "human, in vivo", "value": 60, "unit": "%"}, {"measurement": "ongoing CSR events that were Grade 1, n/N", "setting": "human, in vivo", "value": "6/10"}, {"measurement": "patients reporting retinopathy", "setting": "human, in vivo", "value": 2, "unit": "patients"}, {"measurement": "patients reporting retinopathy, grade 2", "setting": "human, in vivo", "value": 1, "unit": "n"}, {"measurement": "patients reporting retinopathy, grade 3", "setting": "human, in vivo", "value": 1, "unit": "n"}, {"measurement": "patients with Central serous retinopathy (CSR) events", "setting": "human, in vivo", "value": 27, "unit": "%"}, {"measurement": "patients with Central serous retinopathy (CSR) events, n/N", "setting": "human, in vivo", "value": "27/101"}]}]}
